Measurements published in ChEMBL document CHEMBL3044791, “Synthesis and Structure-Activity Relationships of Vasicine Analogues as Bronchodilatory Agents” (2005).

Key:
Tissue [1] = assay: Bronchodilatory activity in histamine-precontracted Cavia porcellus (guinea pig) trachea at 30 ug/ml; format: functional
Tissue [2] = assay: Bronchodilatory activity in acetylcholine-precontracted Cavia porcellus (guinea pig) trachea at 30 ug/ml; format: functional

Compound: O=c1c2ccccc2nc2n1CCCC2
- Activity (Tissue [1]): 40%

Compound: O=c1c2ccccc2nc2n1CCCCC2
- Activity (Tissue [2]): 100%
- Activity (Tissue [1]): 100%

Compound: O=c1c2cc3c(cc2nc2n1CCCCC2)OCO3
- Activity (Tissue [2]): 100%
- Activity (Tissue [1]): 100%

Compound: Cc1nc2ccccc2c(=O)n1-c1ccc(F)cc1
- Activity (Tissue [1]): 80%

Compound: CCc1nc2ccccc2c(=O)n1-c1ccccc1
- Activity (Tissue [1]): 100%

Compound: O=C1CC(c2ccccc2)N=C2CCCCN12 (centres undefined)
- Activity (Tissue [1]): 20%

Compound: O=C1CC(c2ccccc2)N=C2CCCCCN12 (centres undefined)
- Activity (Tissue [2]): 30%
- Activity (Tissue [1]): 50%

Compound: Cc1nc2ccccc2c(=O)n1-c1ccccc1
- Activity (Tissue [1]): 100%

Compound: CCCc1nc2ccccc2c(=O)n1-c1ccccc1
- Activity (Tissue [1]): 50%

Compound: CCCc1nc2ccccc2c(=O)n1-c1ccc(F)cc1
- Activity (Tissue [1]): 10%

Compound: O=c1c2cc3c(cc2nc2n1CCCC2)OCO3
- Activity (Tissue [2]): 40%
- Activity (Tissue [1]): 50%

Compound: CCc1nc2ccccc2c(=O)n1-c1ccc(F)cc1
- Activity (Tissue [1]): 20%

Compound: O=c1c2ccccc2nc2n1CCC2 [DEOXYVASICINONE]
- Activity (Tissue [1]): 20%

Compound: Cn1c(=O)c2c(ncn2CCO)n(C)c1=O [ETOFYLLINE]
- Activity (Tissue [2]): 40%
- Activity (Tissue [1]): 40%
